# Experiments:
# [1] = tested on: B16 cell line; assay: In vitro cell sensitivity: cell proliferation and viability by trypan blue dye exclusion; assay type: cell-based, murine
# Experimental: In vitro cell sensitivity studies were performed on a B16 cell line. Subconfluent melanoma cells were harvested, suspended in complete medium and seeded into 24-well plates (10^5 cells in a final volume of 2 ml/well). The cells were treated in triplicate wells for 24, 48 or 72 hr of culture with graded concentrations of SCV-07 ranging from 0.1 to 100 μg/ml. Cell proliferation and viability were determined by the trypan blue dye exclusion method by manually counting the cells with a hemocytometer.
# [2] = tested on: B16 melanoma; assay: B16 melanoma tumor growth, tumor weight and survival in C57/Bl6 mice, i.p. treatment (Example 1); assay type: in vivo; settings: for animals surviving: After 26 days
# Experimental: Tumors were induced by injecting 1×10^6 B16 melanoma cells subcutaneously in the hind leg of C57/Bl6 syngeneic mice. Mice were randomized into 5 groups of 10 animals and treated with SCV-07 at doses of 0.001, 0.01, or 0.10 mg/kg administered daily i.p. for 3 consecutive days for 2 weeks, starting 3 days after tumor implantation. Control groups were treated with saline or dacarbazine (DTIC) at a dose of 50 mg/kg i.p. for 3 days. Tumor growth was assessed every 3 days by a caliper and tumor weight was measured upon death.
# Mice were injected with B16 melanoma cells and divided into 5 groups of 10 mice each. Control mice were given injections of saline or dacarbazine (DTIC). The effects of different doses of SCV-07 were examined with respect to tumor growth rate and survival time.
# [3] = 5-FU-immune-suppressed animals; immunization with sheep red blood cells; cited from earlier work
# [4] = tested on: bone marrow cells; settings: cited from earlier work
# [5] = tested on: T helper cells; settings: previous studies; cited from earlier work
# [6] = tested on: spleen lymphocytes; settings: cited from earlier work
# [7] = tested on: B16 cell line; assay: Apoptosis by DNA flow cytometric analysis (propidium iodide); assay type: cell-based, murine; settings: propidium iodide flow cytometry
# Experimental: Apoptosis was assessed by DNA flow cytometric analysis. At each concentration of SCV-07, adherent cells were detached from the plates by trypsinization, pooled with the floating cells and fixed with 50% acetone:methanol 1:4 in PBS. The cells were suspended (1×10^6/ml) in PBS containing 50 μg/ml of propidium iodide (PI) and 100 KU/ml of RNase and incubated in the dark at room temperature for 30 min. The DNA content per cell was evaluated by PI fluorescence measured on a linear scale using a FACScan flow cytometer (Becton & Dickinson, San Jose, Calif.). Apoptotic cells show a diminished staining, in the red fluorescence channel, below the G0/G1 population of normal diploid cells, and are represented by a broad hypodiploid peak due to DNA fragmentation following apoptotic events. This is easily distinguishable from the narrow peak of cells with diploid DNA content. The fraction of apoptotic cells was therefore calculated by integrating the pre-G1 peak.
smiles,measurement,setting,value
"N[C@H](CCC(=O)N[C@@H](Cc1c[nH]c2ccccc12)C(=O)O)C(=O)O [SCV-07, γ-D-glutamyl-L-tryptophan]",effect on cell growth by direct cell counts,"[1]; 24 and 48 hrs of culture, 0.1 to 100 μg/ml",dose-dependent inhibitory effect on cell growth
same,effect on number of viable cells,[1]; higher concentration (100 μg/ml),toxic effects with a dramatic decrease in the number of viable cells
same,effect on cell growth,[1]; low concentration,substantially cytostatic
same,animals surviving,[2]; SCV-07 highest dose (0.10 mg/kg i.p.),21%
same,animals surviving,[2]; SCV-07 lower doses,no surviving animals
same,MEAN TUMOR VOLUME,"[2]; DAY 10 after tumor inoculation, SCV-07 0.001 mg/kg i.p.",540 ± 180 mm^3
same,MEAN TUMOR VOLUME,"[2]; DAY 10 after tumor inoculation, SCV-07 0.01 mg/kg i.p.",490 ± 120 mm^3
same,MEAN TUMOR VOLUME,"[2]; DAY 10 after tumor inoculation, SCV-07 0.10 mg/kg i.p.",420 ± 150 mm^3
same,MEAN TUMOR VOLUME,"[2]; DAY 17 after tumor inoculation, SCV-07 0.001 mg/kg i.p.",625 ± 270 mm^3
same,MEAN TUMOR VOLUME,"[2]; DAY 17 after tumor inoculation, SCV-07 0.01 mg/kg i.p.",581 ± 210 mm^3
same,MEAN TUMOR VOLUME,"[2]; DAY 17 after tumor inoculation, SCV-07 0.10 mg/kg i.p.",495 ± 190 mm^3
same,MEAN TUMOR VOLUME,"[2]; DAY 24 after tumor inoculation, SCV-07 0.001 mg/kg i.p.",880 ± 240 mm^3
same,MEAN TUMOR VOLUME,"[2]; DAY 24 after tumor inoculation, SCV-07 0.01 mg/kg i.p.",720 ± 150 mm^3
same,MEAN TUMOR VOLUME,"[2]; DAY 24 after tumor inoculation, SCV-07 0.10 mg/kg i.p.",533 ± 170 mm^3
same,tumor growth,"[2]; SCV-07 0.001, 0.01, 0.10 mg/kg i.p.",inhibited tumor growth in a dose-dependent manner
same,mean tumor weight lower,"[2]; highest dose of SCV-07 (0.10 mg/kg i.p.), weight upon death",35%
same,mean tumor weight lower,"[2]; lower doses of SCV-07 (0.001, 0.01 mg/kg i.p.)",20%
same,immunostimulatory effect,[3],strong immunostimulatory effect
same,expression of Thy-1.2,[4],stimulates
same,IFN-γ production by thymic and spleen cells and circulating level in serum,[5],increased
same,T helper cell polarization,[5],stimulates a shift of T helper cells towards a TH1-like immune response
same,Con-A-induced interleukin-2 (IL-2) production and IL-2 receptor expression,[6],increases
same,percentage of apoptotic cell death,[7],could not evidence any significant effect
